Experimental data published in patent US10583124B2, “Wild bird treatment composition and methods” (priority 2016, dated 2020).
Where two headings read alike, the source gives them in different places.

Tests used:
[1] = assay type: physicochemical; conditions: in acetonitrile, positive control, 1 hour
Description: Composition 10 was exposed to elevated temperature (75° C.) for 1 hour to determine if fenbendazole inside composition 10 was being protected from the effects of high temperature. Control composition 10 was left at room temperature for the same time period. Additionally, 100 ppm fenbendazole in acetonitrile was used as a positive control and exposed to the same conditions (room and elevated temperature for 1 hour).

[2] = as long as protected from photo oxidation; cited from earlier work

For `COC(=O)Nc1nc2ccc(Sc3ccccc3)cc2[nH]1` [fenbendazole], the “Fenbendazole extracted from 100 ppm fenbendazole solution” value ([1]; 21 °C (room temperature)) is listed as 115.18 ppm, the “Fenbendazole extracted from 100 ppm fenbendazole solution” value ([1]; 75 °C) is listed as 93.36 ppm and the “humidity range in which stable” value [2] is listed as 10-100%. The “temperature range in which stable” value [2] was 4.4-37.7 °C.
